The values below come from publication PMC5505960, “A novel STK1-targeted small-molecule as an “antibiotic resistance breaker” against multidrug-resistant Staphylococcus aureus” (Scientific Reports, 2017).

In series [1] the target is T1, STK1 (STKK1, soluble kinase domain) (Staphylococcus aureus, UniProt A0ABF7PGK0).
T1 construct: gene SA1063; His-tag-STKK1, kinase domain with part of the adjacent juxta-membrane domain (1-280 aa)
The series can be described thus: inhibition of autophosphorylation of purified STKK1 (gamma-32P-ATP); also elution of purified STKK1 from ATP column. It counts as biochemical.

Series [2] addresses T1, STK1 (STKK1, soluble kinase domain). The experiment in a line: inhibition of autophosphorylation of purified STKK1 (gamma-32P-ATP); also elution of STK1 from ATP column. The class given is biochemical.
For series [3], the system named is WalR-P (STKK1-phosphorylated WalR) (Staphylococcus aureus (ORF numbering of N315; source strain of the clone not stated)). The series can be described thus: EMSA. The settings on record: scale: fold bound/free ratio vs unphosphorylated WalR.

T1 sequence (A0ABF7PGK0 entry or part of it): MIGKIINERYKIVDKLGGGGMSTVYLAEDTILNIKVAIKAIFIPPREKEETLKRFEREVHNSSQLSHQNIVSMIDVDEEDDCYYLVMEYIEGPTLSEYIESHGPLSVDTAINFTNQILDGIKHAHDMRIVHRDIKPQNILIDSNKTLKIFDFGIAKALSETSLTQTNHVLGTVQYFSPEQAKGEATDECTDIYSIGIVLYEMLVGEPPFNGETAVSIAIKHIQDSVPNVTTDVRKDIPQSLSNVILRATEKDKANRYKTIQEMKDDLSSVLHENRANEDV

With `COC(=O)c1ccc2c(=O)[nH]c3c(C(=O)Nc4ccccc4)sc(=S)n3c2c1` [Inh2-B1, Methyl 5-oxo-3-(phenylcarbamoyl)-1-thioxo-4,5dihydro[1,3]thiazolo[3,4-a]quinazoline-8-carboxylate], inhibition in series [1] was half-maximal at 49 µM (IC50).
In series [2], `Cc1ccc(NC(=O)c2sc(=S)n3c2[nH]c(=O)c2ccccc23)c(C)c1` [Inh2, N-(2,4-Dimethylphenyl)-5-oxo-1-thioxo-4,5-dihydro[1,3]thiazolo[3,4-a] quinazoline-3-carboxamide] had a half-inhibitory concentration (IC50) of 24.5 µM.
In the case of PSA2097 promoter probe (ssaA), in series [3], the binding signal was more than 2.
Still for that read-out and setting: the same measure for PSA0710 promoter probe (lytE): more than 2.
